77 compounds from US12642270B2, “Substituted thiophene carboxamides, thiophene carboxylic acids and derivatives thereof” (Bayer Aktiengesellschaft, priority 2019, dated 2026) can be followed below.

The nature of the data set: Log P by HPLC on reversed phase columns (EEC directive 79/831 Annex V.A8). The data set is classed as physicochemical. The method, then: In the above tables, measurement of Log P values was performed according to EEC directive 79/831 Annex V.A8 by HPLC (High Performance Liquid Chromatography) on reversed phase columns with the following methods: • ^[a] Log P value is determined by measurement of LC-UV, in an acidic range, with 0.1% formic acid in water and acetonitrile as eluent (linear gradient from 10% acetonitrile to 95% acetonitrile). • ^[b] Log P value is determined by measurement of LC-UV, in a neutral range, with 0.001 molar ammonium acetate solution in water and acetonitrile as eluent (linear gradient from 10% acetonitrile to 95% acetonitrile). • ^[c] Log P value is determined by measurement of LC-UV, in an acidic range, with 0.1% phosphoric acid and acetonitrile as eluent (linear gradient from 10% acetonitrile to 95% acetonitrile). If more than one Log P value is available within the same method, all the values are given and separated by “+”. Calibration was done with straight-chain alkan2-ones (with 3 to 16 carbon atoms) with known Log P values (measurement of Log P values using retention times with linear interpolation between successive alkanones). Lambda-max-values were determined using UV-spectra from 200 nm to 400 nm and the peak values of the chromatographic signals.

Where [1] appears, read: method [a], compounds of formula (I), Table 1.1.
Setting [2] is: method marker [a] given with each value, Table 1.1, compounds of formula (I).

In the case of `C=CC1CC1(NC(=O)c1sc(Br)c(Br)c1F)C(=O)OC` (mixture of isomers) [1.0008], under setting [1], the LogP was 3.37^[a].

As to `CCOC(=O)C(NC(=O)c1cc(C)c(Cl)s1)C(C)C` (racemic) [1.0002], the LogP under setting [1] was 3.48^[a]. The same measure, in the same setting: in the case of `CCOC(=O)C(NC(=O)c1cc(F)c(Br)s1)C(C)C` (racemic) [1.0003] it was 3.46^[a]; in that of `COC(=O)C(CC(F)F)NC(=O)c1cc(F)c(Br)s1` (racemic) [1.0004], 2.68^[a]; in that of `CSCCC(NC(=O)c1cc(Br)c(Cl)s1)C(=O)O` (racemic) [1.0005], 2.58^[a]. Still for that read-out and setting: the figure for `COC(=O)C1(NC(=O)c2sc(Br)c(Br)c2F)CCOC1` (racemic) [1.0009] is 2.76^[a]; for `CCOC(=O)C(CO)NC(=O)c1sc(Br)c(Br)c1F` (racemic) [1.0012] it is 2.51^[a]. Same read-out and setting: the figure for `CCSC(=O)C(CC(C)C)NC(=O)c1sc(Br)c(Br)c1F` (racemic) [1.0013] is 5.05^[a]; for `CCSC(=O)C(NC(=O)c1sc(Br)c(Br)c1F)C(C)C` (racemic) [1.0014] it is 4.87^[a]; for `CCOC(=O)C(CO)NC(=O)c1sc(Cl)c(Br)c1C` (racemic) [1.0019] it is 2.54^[a]. With `CCSC(=O)C(CC(C)C)NC(=O)c1sc(Cl)c(Br)c1C` (racemic) [1.0020], under setting [1], the LogP was 5.03^[a]. Take `CCSC(=O)C(NC(=O)c1sc(Cl)c(Br)c1C)C(C)C` (racemic) [1.0021]: the LogP under setting [1] is 4.74^[a].

In the case of `CCOC(=O)C(NC(=O)c1sc(C#N)c(Br)c1C)C(C)C` (racemic) [1.0027], the LogP under setting [1] is 3.52^[a]. In the case of `CCOC(=O)C(Cc1ccccc1)NC(=O)c1sc(C#N)c(Br)c1C` (racemic) [1.0028], under setting [1], the LogP was 3.74^[a]. Same read-out and setting: the figure for `CCOC(=O)C(Cc1ccccc1)NC(=O)c1cc(Br)c(Cl)s1` (racemic) [1.0029] is 4.06^[a]; for `CCOC(=O)C(Cc1ccccc1)NC(=O)c1cc(F)c(Br)s1` (racemic) [1.0030] it is 3.69^[a]; for `CCOC(=O)C(Cc1ccccc1)NC(=O)c1cc(C)c(Cl)s1` (racemic) [1.0031] it is 3.73^[a].

Turning to `CC(C)(C)OC(=O)C(NC(=O)c1sc(Br)c(Br)c1F)C1CC1` (racemic) [1.0921], the LogP (method [a]) is 4.89^[a]. Same read-out and setting: the figure for `O=C(NC(C(=O)OC1CCC1)C1CC1)c1sc(Br)c(Br)c1F` (racemic) [1.0922] is 4.59^[a]; for `CC(C)OC(=O)C(NC(=O)c1sc(Br)c(Br)c1F)C1CC1` (racemic) [1.0923] it is 4.40^[a]. For `COC(=O)C(Cc1ccc(Cl)cc1)NC(=O)c1sc(Br)c(Br)c1Cl` (racemic) [1.0940], the LogP under setting [2] is 4.95^[a]. Still for that read-out and setting: in the case of `COC(=O)C(C)(Cc1ccccc1)NC(=O)c1sc(Br)c(Br)c1Cl` (racemic) [1.0941] it was 5.12^[a]; in that of `COC(=O)C(NC(=O)c1sc(Br)c(Br)c1Cl)c1cccs1` (racemic) [1.0942], 4.25^[a]; in that of `CCOC(=O)C(NC(=O)c1sc(Br)c(Br)c1Cl)C(F)(F)F` (racemic) [1.0943], 4.50^[a]. Same read-out and setting: the figure for `CCOC(=O)C(NC(=O)c1sc(Cl)c(Cl)c1Br)C(F)(F)F` (racemic) [1.0946] is 4.52^[a]; for `COC(=O)C(NC(=O)c1sc(Cl)c(Cl)c1Br)c1cccs1` (racemic) [1.0947] it is 4.26^[a]; for `COC(=O)C(C)(Cc1ccccc1)NC(=O)c1sc(Cl)c(Cl)c1Br` (racemic) [1.0948] it is 5.15^[a]. Same read-out and setting: the figure for `CCOC(=O)C(NC(=O)c1sc(Br)c(Br)c1F)C(F)(F)F` (racemic) [1.0952] is 4.08^[a]; for `COC(=O)C(NC(=O)c1sc(Br)c(Br)c1F)c1cccs1` (racemic) [1.0953] it is 3.84^[a]. Consider `CCOC(=O)CNC(=O)c1sc(C)c(Br)c1F` [1.0001], for which the LogP under setting [1] was 2.69^[a]. The same measure, in the same setting: the figure for `COC(=O)C1(NC(=O)c2sc(Br)c(Br)c2F)CCC(F)(F)CC1` [1.0010] is 3.74^[a]. Same read-out and setting: the figure for `CCOC(=O)C1(NC(=O)c2sc(Br)c(Br)c2F)CCOCC1` [1.0011] is 3.13^[a]. Take `O=C(CNC(=O)c1sc(Br)c(Br)c1F)SCc1ccccc1` [1.0015]: under setting [1], the LogP is 4.15^[a].

`O=C(CNC(=O)c1sc(Br)c(Br)c1F)Sc1ccccc1` [1.0016]: under setting [1], the LogP is 3.89^[a]. Regarding `CCOC(=O)C1(NC(=O)c2sc(Cl)c(Br)c2C)CCOCC1` [1.0018], the LogP under setting [1] was 3.15^[a]. With `Cc1c(C(=O)NCC(=O)SCc2ccccc2)sc(Cl)c1Br` [1.0022], the LogP under setting [1] was 4.37^[a]. Turning to `CCOC(=O)CNC(=O)c1sc(C#N)c(Br)c1C` [1.0024], the LogP under setting [1] was 2.46^[a].

For `CCOC(=O)CCNC(=O)c1sc(C#N)c(Br)c1C` [1.0025], the LogP under setting [1] is 2.52^[a]. Take `CCOC(=O)C1(NC(=O)c2sc(C#N)c(Br)c2C)CC1` [1.0026]: under setting [1], the LogP is 2.58^[a].

Consider `COC(=O)CC1(NC(=O)c2sc(Cl)c(Br)c2C)CC1` [1.0032], for which, under setting [1], the LogP was 3.04^[a].

Regarding `CCOC(=O)C1(CNC(=O)c2sc(Cl)c(Br)c2C)CC1` [1.0033], the LogP under setting [1] was 3.79^[a]. For `CCOC(=O)C1(NC(=O)c2sc(Cl)c(Br)c2C)COC1` [1.0034], under setting [1], the LogP was 2.88^[a]. Still for that read-out and setting: the figure for `COC(=O)C1(NC(=O)c2sc(Cl)c(Br)c2C)CSC1` [1.0035] is 3.29^[a]; for `CCOC(=O)C(CC(N)=O)NC(=O)c1sc(Cl)c(Br)c1C` (centres unmarked) [1.0036] it is 2.25^[a]. Regarding `CCOC(=O)C(CC(F)(F)F)NC(=O)c1sc(Cl)c(Br)c1C` (centres unmarked) [1.0038], the LogP under setting [1] was 3.99^[a]. `CCOC(=O)C1(CNC(=O)c2sc(Br)c(Cl)c2C)CC1` [1.0040]: the LogP under setting [1] is 3.75^[a]. The same measure, in the same setting: in the case of `CCOC(=O)C1(NC(=O)c2sc(Br)c(Cl)c2C)COC1` [1.0041] it was 2.84^[a]; in that of `COC(=O)C1(NC(=O)c2sc(Br)c(Cl)c2C)CSC1` [1.0042], 3.25^[a]; in that of `CCOC(=O)C(CC(N)=O)NC(=O)c1sc(Br)c(Cl)c1C` (centres unmarked) [1.0043], 2.22^[a]. Turning to `CCOC(=O)C(CC(F)(F)F)NC(=O)c1sc(Br)c(Cl)c1C` (centres unmarked) [1.0045], under setting [1], the LogP is 3.94^[a]. The same measure, in the same setting: the figure for `CCOC(=O)C1(NC(=O)c2sc(Br)c(Br)c2F)COC1` [1.0046] is 2.77^[a]; for `COC(=O)C1(NC(=O)c2sc(Br)c(Br)c2F)CSC1` [1.0047] it is 3.19^[a]; for `CCOC(=O)C(CC(N)=O)NC(=O)c1sc(Br)c(Br)c1F` (centres unmarked) [1.0048] it is 2.17^[a]. On to `CCOC(=O)C(CC(F)(F)F)NC(=O)c1sc(Br)c(Br)c1F` (centres unmarked) [1.0050], for which the LogP under setting [1] is 3.88^[a].

`CCOC(=O)C(Cc1ccccc1)NC(=O)c1sc(Br)c(Br)c1F` (centres unmarked) [1.0051]: the LogP under setting [1] is 4.55^[a].

For `CCOC(=O)CNC(=O)c1cc(Br)c(C#N)s1` [1.0052], the LogP under setting [1] was 2.16^[a]. On the same count and under the same terms, in the case of `CCOC(=O)C1(NC(=O)c2cc(Br)c(C#N)s2)CC1` [1.0053] it was 2.45^[a]; in that of `CCOC(=O)C(NC(=O)c1cc(Br)c(C#N)s1)C(C)C` (centres unmarked) [1.0054], 3.27^[a]; in that of `CCOC(=O)C(Cc1ccccc1)NC(=O)c1cc(Br)c(C#N)s1` (centres unmarked) [1.0055], 3.50^[a]. On to `CCOC(=O)CNC(=S)c1sc(Cl)c(Cl)c1Br` [1.0059], for which the LogP under setting [1] is 4.61^[a]. Consider `CCOC(=O)C(CC(C)C)NC(=O)c1sc(Br)c(Br)c1F` (centres unmarked) [1.0062], for which the LogP under setting [1] is 4.67^[a]. On the same count and under the same terms, the figure for `CCOC(=O)CNC(=O)c1sc(Cl)c(Br)c1C` [1.0063] is 2.98^[a]; for `CCOC(=O)CCNC(=O)c1sc(Cl)c(Br)c1C` [1.0064] it is 3.15^[a]. `CCOC(=O)C1(NC(=O)c2sc(Cl)c(Br)c2C)CC1` [1.0065]: under setting [1], the LogP is 3.17^[a]. As to `CCOC(=O)C1(NC(=O)c2sc(Cl)c(Br)c2C)CCC1` [1.0066], under setting [1], the LogP was 3.71^[a].

On to `CCOC(=O)C(NC(=O)c1sc(Cl)c(Br)c1C)C(C)C` (centres unmarked) [1.0067], for which, under setting [1], the LogP is 4.30^[a]. Still for that read-out and setting: in the case of `COC(=O)C(CC(F)F)NC(=O)c1sc(Cl)c(Br)c1C` (centres unmarked) [1.0068] it was 3.33^[a]; in that of `CCOC(=O)C(CC(C)C)NC(=O)c1sc(Cl)c(Br)c1C` (centres unmarked) [1.0069], 4.58^[a]. The same measure, in the same setting: the figure for `CCOC(=O)C(CCSC)NC(=O)c1sc(Cl)c(Br)c1C` (centres unmarked) [1.0070] is 3.99^[a]. The same measure, in the same setting: the figure for `CCOC(=O)C(Cc1ccccc1)NC(=O)c1sc(Cl)c(Br)c1C` (centres unmarked) [1.0071] is 4.51^[a]; for `CCOC(=O)CNC(=O)c1sc(Br)c(Cl)c1C` [1.0072] it is 2.94^[a]. `CCOC(=O)CCNC(=O)c1sc(Br)c(Cl)c1C` [1.0073]: the LogP under setting [1] was 3.11^[a].

With `CCOC(=O)C1(NC(=O)c2sc(Br)c(Cl)c2C)CC1` [1.0074], under setting [1], the LogP is 3.13^[a]. On the same count and under the same terms, the figure for `CCOC(=O)C1(NC(=O)c2sc(Br)c(Cl)c2C)CCC1` [1.0075] is 3.67^[a]; for `CCOC(=O)C(NC(=O)c1sc(Br)c(Cl)c1C)C(C)C` (centres unmarked) [1.0076] it is 4.25^[a]; for `COC(=O)C(CC(F)F)NC(=O)c1sc(Br)c(Cl)c1C` (centres unmarked) [1.0077] it is 3.29^[a]. As to `CCOC(=O)C(CC(C)C)NC(=O)c1sc(Br)c(Cl)c1C` (centres unmarked) [1.0078], the LogP under setting [1] was 4.53^[a].
